From publication PMC10877416 (Translational Oncology, 2024)
One block for each molecule: values may come before it. Bridge positions count the residues as written; N and C are the ends. Square brackets hold non-standard residues; d marks the D form. Ends that are not written are not given here. Peptide text beside a SMILES is read from it. * marks the point of attachment. Biotin = O=C1N[C@H]2[C@H](CS[C@H]2CCCCC(=O)*)N1; Nle = CCCC[C@H](N)C(=O)O; Abu = CC[C@H](N)C(=O)O

What was measured:
Solubility in water = assay type: physicochemical
Source text: To increase solubility, its sequence was elongated at the N- and C-terminals by adding hydrophilic amino acids from the protein sequence. […] These modifications were introduced to prevent the oxidation of methionine and cysteine.

PD-1/PD-L1 complex = target: T1, PD-1/PD-L1 complex (Homo sapiens, UniProt Q15116); assay: PD-1 T cell NF-κB::eGFP reporter co-culture assay; assay type: cell-based; details: PD-1 reporter cells + TCS CD86/PD-L1; peptide 150.00-5.56 µM; 90 min preincubation, 24 h co-culture; flow cytometry; normalized to PD-1 reporter/TCS CD86
T1 construct: expressed in transfected cells

[1] = Peptide stability in RPMI 1640 medium with 10 % FBS; details: RPMI 1640 + 10 % heat-inactivated FBS; for Additional decrease in peptide content after 24 h of incubation: 37°C; for Stability in the medium: 0 and 24 h
[2] = test system: Jurkat E6.1 and HCT-116 cells; details: co-culture model with activated Jurkat E6.1 and HCT-116 cells; cited from earlier work
Procedure: (§1) To better examine the potency of the PD-L1-derived peptides at the cellular level, competitive assays and stimulation assays were performed. […] These differences in obtained results may be due to the fact that in SPR and ELISA, the peptide is immobilized to the surface of the sensor or the plate, while it is in the solution in cellular assays. Moreover, the immobilization of the peptide may ...

Jurkat E6.1 cells = assay: Cell viability assay (CellTiter-Glo), Jurkat E6.1 cells; details: 24 h; for Effect on Jurkat E6.1 cells at lower concentrations: concentrations below the highest tested (150.00 to 5.56 µM range); for Number of living, metabolically active Jurkat E6.1 cells: highest tested concentration (150.00 µM), normalized to untreated cells, three experiments in triplicate
PD-1 = target: T2, PD-1 (Homo sapiens, UniProt Q15116); assay: SPR analysis: PD-1 titrated over immobilized biotinylated peptides or PD-L1; assay type: binding; details: SPR KD 198 µM versus 2.04 µM
T2 construct: purchased Recepton Company, Poland R1–001–03

TCS Ctrl cells = assay: Cell viability assay (CellTiter-Glo), TCS Ctrl cells; assay type: cell-based; details: highest tested concentration, 24 h
[3] = test system: murine primary lymphocytes and Jurkat cells; details: cited from earlier work
Procedure: as §1

PD-1 (Recepton) = target: T3, PD-1 (Recepton) (human, UniProt Q15116 25-170); assay: SPR; Biacore T200; biotinylated peptides (~800 RU; L1 ~500 RU) or biotinylated PD-L1 immobilised on an SA sensor chip; PD-1 injected at 10 to 0.31 µM; PBS-P running buffer, 30 µl/min, 25°C; details: both partners purified
T3 construct: also called PD-1 protein; source: bought: Recepton Company, Poland, #R1–001–03

[4] = pH 8.0, 100 μM peptide, RP-HPLC

T3 sequence (Q15116 25-170): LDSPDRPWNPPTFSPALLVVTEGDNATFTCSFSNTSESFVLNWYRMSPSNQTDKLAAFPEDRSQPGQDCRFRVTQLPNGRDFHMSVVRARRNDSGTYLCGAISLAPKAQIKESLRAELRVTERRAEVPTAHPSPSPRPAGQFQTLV
T1 sequence (Q15116 25-288, one chain of several): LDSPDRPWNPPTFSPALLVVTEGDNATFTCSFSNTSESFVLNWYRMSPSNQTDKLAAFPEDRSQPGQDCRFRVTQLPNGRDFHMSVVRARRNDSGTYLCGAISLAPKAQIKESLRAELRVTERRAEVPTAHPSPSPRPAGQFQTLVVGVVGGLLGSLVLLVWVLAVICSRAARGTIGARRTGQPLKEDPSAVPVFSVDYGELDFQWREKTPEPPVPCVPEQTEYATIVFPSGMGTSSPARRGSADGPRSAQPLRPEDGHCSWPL
T2 sequence (Q15116 25-288): as the sequence (Q15116 25-288, one chain of several) above

Molecule: CCCC[C@H](NC(=O)[C@H](CCC(=O)O)NC(=O)[C@H](Cc1c[nH]c2ccccc12)NC(=O)[C@H](Cc1ccc(O)cc1)NC(=O)[C@@H](NC(=O)[C@@H](NC(=O)[C@H](CC(C)C)NC(=O)[C@H](C)NC(=O)[C@H](C)NC(=O)[C@H](CC(C)C)NC(=O)[C@H](CC(=O)O)NC(=O)[C@H](CC(C)C)NC(=O)[C@H](CCC(N)=O)NC(=O)[C@H](CCCCN)NC(=O)[C@H](CCC(=O)O)NC(C)=O)[C@@H](C)CC)C(C)C)C(=O)N[C@@H](CCC(=O)O)C(=O)N[C@@H](CC(=O)O)C(=O)N[C@@H](CCCCN)C(=O)N[C@@H](CC(N)=O)C(=O)N[C@H](C(=O)N[C@H](C(=O)N[C@@H](CCC(N)=O)C(=O)N[C@@H](Cc1ccccc1)C(=O)N[C@H](C(N)=O)C(C)C)[C@@H](C)CC)[C@@H](C)CC [Peptide L5] (HELM PEPTIDE1{[ac].E.K.Q.L.D.L.A.A.L.I.V.Y.W.E.[Nle].E.D.K.N.I.I.Q.F.V.[am]}$$$$V2.0)
Solubility in water (Solubility in water): no positive effect on the solubility

Restoration of eGFP expression in the reporter assay (PD-1/PD-L1 complex): concentration-dependent effect | Amount of peptide at 0 h, relative to control ([1]; pH 8.0, 100 μM peptide, 0 h, RP-HPLC peak area vs peptide in H2O at 0 h, three independent experiments): 88% | Additional decrease in peptide content after 24 h of incubation [1, 4]: 12% | Stability in the medium ([1]; RP-HPLC): least concentration fluctuation
Molecule: CC(=O)N[C@@H](C)C(=O)N[C@@H](CC(=O)O)C(=O)N[C@@H](Cc1ccc(O)cc1)C(=O)N[C@@H](CCCCN)C(=O)N[C@@H](CCCNC(=N)N)C(N)=O [Peptide L15] (Ac-ADYKR-NH2)

Molecule: CCCC[C@H](NC(=O)[C@H](CCC(=O)O)NC(=O)[C@H](Cc1c[nH]c2ccccc12)NC(=O)[C@H](Cc1ccc(O)cc1)NC(=O)[C@@H](NC(=O)[C@@H](NC(=O)[C@H](CC(C)C)NC(=O)[C@H](C)NC(C)=O)[C@@H](C)CC)C(C)C)C(=O)N[C@@H](CCC(=O)O)C(=O)N[C@@H](CC(=O)O)C(=O)N[C@@H](CCCCN)C(=O)N[C@@H](CC(N)=O)C(=O)N[C@H](C(=O)N[C@H](C(=O)N[C@@H](CCC(N)=O)C(=O)N[C@@H](Cc1ccccc1)C(=O)N[C@H](C(N)=O)C(C)C)[C@@H](C)CC)[C@@H](C)CC [Peptide L2] (HELM PEPTIDE1{[ac].A.L.I.V.Y.W.E.[Nle].E.D.K.N.I.I.Q.F.V.[am]}$$$$V2.0)
Solubility in water (Solubility in water): poorly soluble in water

Molecule: RTMIWYpGAWYKRI [Peptide P1.3, Wang et al. peptide with D-proline in the loop and a tryptophan zipper]
IL-2 secretion [2]: has the ability to restore IL-2 secretion

Molecule: CCCC[C@@H]1NC(=O)[C@@H](NC(=O)[C@H](CCCNC(=N)N)NC(C)=O)CSSC[C@@H](C(=O)N[C@@H](CCCNC(=N)N)C(=O)N[C@H](C(N)=O)[C@@H](C)CC)NC(=O)[C@H](Cc2ccc(O)cc2)NC(=O)[C@H](CC(=O)O)NC(=O)[C@H](C)NC(=O)[C@H](Cc2ccccc2)NC(=O)CNC(=O)[C@H](Cc2ccc(O)cc2)NC(=O)[C@H](CO)NC(=O)[C@H]([C@@H](C)CC)NC1=O [Peptide L13]
Effect on Jurkat E6.1 cells at lower concentrations (Jurkat E6.1 cells): no negative effects at lower concentrations | Number of living, metabolically active Jurkat E6.1 cells (Jurkat E6.1 cells): 3%

Molecule: CCCC[C@H](NC(=O)[C@H](CCC(=O)O)NC(=O)[C@H](Cc1c[nH]c2ccccc12)NC(=O)[C@H](Cc1ccc(O)cc1)NC(=O)[C@@H](NC(=O)[C@@H](NC(=O)[C@H](CC(C)C)NC(=O)[C@H](C)NC(C)=O)[C@@H](C)CC)C(C)C)C(=O)N[C@@H](CCC(=O)O)C(=O)N[C@@H](CC(=O)O)C(=O)N[C@@H](CCCCN)C(=O)N[C@@H](CC(N)=O)C(=O)N[C@H](C(=O)N[C@H](C(=O)N[C@@H](CCC(N)=O)C(=O)N[C@@H](Cc1ccccc1)C(=O)N[C@H](C(=O)N[C@@H](Cc1c[nH]cn1)C(=O)NCC(=O)N[C@@H](CCC(=O)O)C(=O)N[C@@H](CCC(=O)O)C(=O)N[C@@H](CC(=O)O)C(N)=O)C(C)C)[C@@H](C)CC)[C@@H](C)CC [Peptide L3] (HELM PEPTIDE1{[ac].A.L.I.V.Y.W.E.[Nle].E.D.K.N.I.I.Q.F.V.H.G.E.E.D.[am]}$$$$V2.0)
Solubility in water (Solubility in water): no positive effect on the solubility

Restoration of eGFP expression in the reporter assay (PD-1/PD-L1 complex): concentration-dependent effect | KD of (L7) relative to (L11), fold weaker (PD-1): approximately 97 fold
Molecule: CCCC[C@H](NC(=O)[C@H](CC)NC(=O)[C@H](CCCNC(=N)N)NC(=O)[C@H](Cc1ccc(O)cc1)NC(=O)[C@@H](NC(C)=O)C(C)C)C(=O)N[C@H](C(=O)N[C@@H](CO)C(=O)N[C@@H](Cc1ccc(O)cc1)C(=O)NCC(=O)NCC(=O)N[C@@H](C)C(=O)N[C@@H](CC(=O)O)C(=O)N[C@@H](Cc1ccc(O)cc1)C(=O)N[C@@H](CCCCN)C(=O)N[C@@H](CCCNC(=N)N)C(=O)N[C@H](C(=O)N[C@H](C(N)=O)[C@@H](C)O)[C@@H](C)CC)[C@@H](C)CC [Peptide L7] (HELM PEPTIDE1{[ac].V.Y.R.[Abu].[Nle].I.S.Y.G.G.A.D.Y.K.R.I.T.[am]}$$$$V2.0)

Decrease in the amount of peptide at 0 h compared to control ([1]; pH 8.0, 100 μM peptide, 0 h, RP-HPLC): approximately 10% | Additional decrease in peptide content after 24 h of incubation [1, 4]: ~11% | Stability in the medium ([1]; RP-HPLC): highest stability
Molecule: CCCC[C@@H]1NC(=O)[C@@H](NC(=O)[C@H](CCCNC(=N)N)NC(C)=O)CSSC[C@@H](C(=O)N[C@@H](CCCNC(=N)N)C(=O)N[C@H](C(N)=O)[C@@H](C)CC)NC(=O)[C@H](Cc2ccc(O)cc2)NC(=O)[C@H](CC(=O)O)NC(=O)[C@H](C)NC(=O)[C@H](CO)NC(=O)CNC(=O)[C@H](Cc2ccc(O)cc2)NC(=O)[C@H](CO)NC(=O)[C@H]([C@@H](C)CC)NC1=O [Peptide L12]
Effect on TCS Ctrl cell viability (TCS Ctrl cells): significant decrease in cell viability | Effect on Jurkat E6.1 cells at lower concentrations (Jurkat E6.1 cells): no negative effects at lower concentrations | Number of living, metabolically active Jurkat E6.1 cells (Jurkat E6.1 cells): 38%

Molecule: GADYKRITVKVN [PL120131]
Apoptotic signal induced by sPD-L1 [3]: reverses the apoptotic signal

Molecule: CCCC[C@H](NC(=O)[C@H](CCC(=O)O)NC(=O)[C@H](Cc1c[nH]c2ccccc12)NC(=O)[C@H](Cc1ccc(O)cc1)NC(=O)[C@@H](NC(=O)[C@@H](NC(=O)[C@H](CC(C)C)NC(=O)[C@H](C)NC(C)=O)[C@@H](C)CC)C(C)C)C(=O)N[C@@H](CCC(=O)O)C(=O)N[C@@H](CC(=O)O)C(=O)N[C@@H](CCCCN)C(=O)N[C@@H](CC(N)=O)C(=O)N[C@H](C(=O)N[C@H](C(=O)N[C@@H](CCC(N)=O)C(=O)N[C@@H](Cc1ccccc1)C(=O)N[C@H](C(=O)N[C@@H](Cc1c[nH]cn1)C(=O)NCC(=O)N[C@@H](CCC(=O)O)C(=O)N[C@@H](CCC(=O)O)C(=O)N[C@@H](CC(=O)O)C(=O)N[C@@H](CC(C)C)C(=O)N[C@@H](CCCCN)C(=O)N[C@H](C(=O)N[C@@H](CCC(N)=O)C(=O)N[C@@H](Cc1c[nH]cn1)C(=O)N[C@@H](CO)C(N)=O)C(C)C)C(C)C)[C@@H](C)CC)[C@@H](C)CC [Peptide L4] (HELM PEPTIDE1{[ac].A.L.I.V.Y.W.E.[Nle].E.D.K.N.I.I.Q.F.V.H.G.E.E.D.L.K.V.Q.H.S.[am]}$$$$V2.0)
Solubility in water (Solubility in water): no positive effect on the solubility

Kd (PD-1 (Recepton)): 22 µM
B1: biotin-GGGGG-PD-L1(110–128)^(V111C-T127C) (L10) (peptide)
chain: Biotin-GGGGGGCYR[Abu][Nle]ISYGGADYKRICV
modifications: disulfide 7-23

Kd (PD-1 (Recepton)): 198 µM
B2: biotin-GGGGG-PD-L1(111–127) (L7) (peptide)
chain: Biotin-GGGGGVYR[Abu][Nle]ISYGGADYKRIT

Kd (PD-1 (Recepton)): 14.9 µM
B3: biotin-GGGGG-PD-L1(113–126) (L8) (peptide)
chain: Biotin-GGGGGR[Abu][Nle]ISYGGADYKRI
